Measurements as given in patent US20240316038A1, “APOL1 INHIBITORS AND METHODS OF USE” (Maze Therapeutics, Inc., priority 2021, published 2024).

Experiments:
[1] = target: T1, APOL1 G2 (Homo sapiens, UniProt O14791, DEL388-389); test: APOL1 calcium transport inhibition assay (GCaMP6f calcium influx, FLIPR) in HEK T-REx/GCaMP6f/APOL1 G2 K6.3 cells; assay type: cell-based; conditions: inhibition of APOL1-mediated calcium influx; geometric mean of at least 2 assay runs, † = single assay run (technical duplicate)
T1 construct: expressed in transfected cells; host or cells: HEK293 T-REx clonal lines: HEK T-REx/GCaMP6f/APOL1 G2 K6.3 in A1, HEK293/T-REx APOL1 G2/clone #2 in A2
T1 sequence (O14791 with tags, fused parts or gaps DEL388-389): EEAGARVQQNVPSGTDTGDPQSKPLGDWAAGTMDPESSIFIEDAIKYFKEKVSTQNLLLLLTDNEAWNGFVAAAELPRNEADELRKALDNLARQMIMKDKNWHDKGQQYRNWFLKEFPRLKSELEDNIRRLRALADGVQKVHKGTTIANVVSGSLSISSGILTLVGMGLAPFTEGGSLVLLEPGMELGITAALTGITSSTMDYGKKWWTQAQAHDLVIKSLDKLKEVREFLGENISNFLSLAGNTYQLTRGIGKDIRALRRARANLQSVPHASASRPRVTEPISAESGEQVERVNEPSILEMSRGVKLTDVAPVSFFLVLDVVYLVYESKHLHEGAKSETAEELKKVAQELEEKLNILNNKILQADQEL
Procedure: A HEK293 clonal cell line was generated to stably express GCaMP6f, a genetically encoded calcium indicator, and inducibly express APOL1 G2 (HEK T-REx/GCaMP6f/APOL1 G2 K6.3). Cells were maintained in the following standard complete medium: DMEM with 4.5 g/L glucose and sodium pyruvate (BioWhittaker, Lonza, BE12-614F), supplemented with 10% FBS Performance Plus (Gibco, 16000044), 1% penicillin-streptomycin (BioWhittaker, DE17-602E), 2 mM ultraglutamine-1 (BioWhittaker cat. BE 17-605/U1), 50 μg/mL Zeocin (InvivoGen, ant-zn), 2.5 μg/mL Blasticidin (InvivoGen, ant-bl-5), and 25 μg/mL Hygromycin (InvivoGen, ant-hg). Standard propagation conditions consisted of plating 9×10^6, 4×10^6, 2×10^6 cells in a T225 flasks to be processed after 2, 3, or 4 days, respectively.
A source plate was generated containing 20 serially diluted compounds in DMSO (duplicate 8-point dose response). Next, 0.8 μL of compounds were transferred from the source plate to a destination plate prefilled with 79.2 μL of Ca^2+ free Tyrode's buffer (130 mM NaCl, 5 mM KCl, 1 mM MgCl2, 5 mM NaHCO3, 20 mM HEPES at pH 7.4). The destination plate was placed on a plate shaker (5 seconds at 2000 rpm) to mix. […] All transfer and mixing steps were conducted with an CyBi®-Well dispenser.
Cells were split by gently washing with DPBS (Euroclone, ECB4004L), followed by a 5-minute incubation (humidified, 37° C. with 5% CO2) with trypsin-EDTA solution (Euroclone, ECB3052D). Detached cells were diluted with standard complete medium without selective agents, counted, and plated in a 384 MTP microplate (GR4332CPL, Twin Helix) (10,000 cells/well in 25 μl/well) using a MATRIX WellMate dispenser. Plates were placed into a humidified incubator (37° C. with 5% CO2) overnight. The following day, 20 μL of doxycycline (Sigma, D9891) at 20 ng/mL in standard complete medium was added to cells with a CyBi @Drop dispenser to induce APOL1 G2 expression. After a 6-hour incubation (humidified, 37° C. with 5% CO2), cells were washed 3 times with Ca^2+ free Tyrode's Buffer (130 mM NaCl, 5 mM KCl, 1 mM MgCl2, 5 mM NaHCO3, 20 mM HEPES at pH 7.4) using a BIOTEK Microplate washer, such that 10 μL of buffer remained in each well after the final wash. Assay plates were then stored at room temperature for 10 minutes. Next, 10 μL of diluted compounds were transferred to the assay plate from the 2× compound plate using a CyBi®-Well dispenser. Compound incubation was then carried out at room temperature for 10 minutes. The assay plate was transferred to the […] and 20 μL of 10 mM Ca^2+ (final concentration=5 mM) Tyrode's buffer was injected.
Table B1 below summarizes the data from this experiment. Unless otherwise specified, AC50 and values are reported as the geometric mean of at least 2 assay runs on separate days. Each run represents the average of a technical replicate, where each compound was assayed twice in the same plate. A superscript † symbol indicates a value from the average of a technical replicate from a single assay run, where each compound was assayed twice in the same plate.
The AC50 values in Table B1 below reflect the compound's ability to prevent calcium influx by inhibiting APOL1. […] Compounds in Table B1 are referred to by the corresponding Compound Number in Table 1, which is also referred to in the synthetic examples. When one or more of the numbered compounds are identified by stereochemistry (for example, (R)- or (S)—), the specific stereoisomer for which data is provided in Table B1 may be identified by the elution order of such compound as described in the synthetic examples. To illustrate, Compound 2 is the first-eluting enantiomer of step 4 of Example 1 and Compound 3 is the second-eluting enantiomer of step 4 of Example 1. Further, by way of illustration, Compound 27 is the first-eluting enantiomeric mixture in step 4 of Example 7 and Compound 28 is the second-eluting enantiomeric mixture in step 4 of Example 7. […]

[2] = target: T1, APOL1 G2; test: Rescue of HEK293 cell death caused by overexpression of APOL1 (CellTiter-Glo luminescence), HEK293/T-REx APOL1 G2/clone #2; assay type: cell-based; conditions: reversal of cell death caused by overexpression of APOL1; geometric mean of at least 2 assay runs, † = single assay run (technical duplicate)
Procedure: A HEK293 clonal cell line overexpressing APOL1 G2 (HEK293/T-REx APOL1 G2/clone #2) was maintained in 1×DMEM-GlutaMax (Gibco, 10569-010) media with 10% tetracycline-free FBS (Takara Bio USA, 631101), 5 μg/mL Blasticidin (Gibco, A1113903), and 100 μg/mL Zeocin (Invitrogen, R25001) in T75 flasks. In preparation for the assay, this media was aspirated and 2 mL of prewarmed TrypLE Express (Gibco, 12605-010) was added to a flask to detach cells. The flask was then incubated (humidified, 37° C. with 5% CO2) for 3-5 minutes. Afterwards, 8 mL of prewarmed cell assay media (lx DMEM-GlutaMax media with 10% tetracycline-free FBS) was added to the trypsinized cells. The suspension was gently mixed, and cells were counted using a Countess Cell Counting Chamber (Invitrogen). The suspension was diluted using cell assay media to generate a working stock solution (166,667 cells/mL). Using a MultiDrop Combi (Thermo Electron Corp), 30 μL (final cell density=5,000 cells/well) of the working stock solution was dispensed into each well of white 384-well assay ready plates (Nunc™, 164610) containing 6 ng/mL doxycycline, to induce APOL1 expression, and compound. All compounds were plated in a duplicate 8-point dilution series that consisted of 3-fold stepwise dilutions (0.5% DMSO final). Assay plates were incubated (humidified, 37° C. with 5% CO2) for 17 hours. After the incubation, the plates were equilibrated at room temperature for 1 hour. Next, 15 μl of CellTiter-Glo® reagent (Promega, G7570) was added to each well using a MultiDrop Combi. Plates were placed on an orbital shaker (500 rpm) for 5 minutes to induce cell lysis and then incubated at room temperature for 10 minutes. Luminescence was measured on an Envision plate reader. Collaborative Drug Discovery software was utilized for graphing data. Plots were generated using a four parameter logistic curve fit.
Table B2 below provides the results from this experiment. Unless otherwise specified, EC50 values are reported as the geometric mean of at least 2 assay runs on separate days. Each run represents the average of a technical replicate, where each compound was assayed twice in the same plate. A superscript t symbol indicates a value from the average of a technical replicate from a single assay run, where each compound was assayed twice in the same plate. Compounds in Table B2 are referred to by the corresponding Compound Number in Table 1, which is also referred to in the synthetic examples. When one or more of the numbered compounds are identified by stereochemistry (for example, (R)- or (S)—), the specific stereoisomer for which data is provided in Table B2 may be identified by the elution order of such compound as described in the synthetic examples. To illustrate, Compound 2 is the first-eluting enantiomer of step 4 of Example 1 and Compound 3 is the second-eluting enantiomer of step 4 of Example 1. Further, by way of illustration, Compound 27 is the first-eluting enantiomeric mixture in step 4 of Example 7 and Compound 28 is the second-eluting enantiomeric mixture in step 4 of Example 7. Then, Compound 27 is separated into Compound 29 (the first-eluting enantiomer) and Compound 30 (the second-eluting enantiomer) in Example 8, and Compound 28 is separated into Compound 31 (the first-eluting enantiomer) and Compound 32 (the second-eluting enantiomer) in Example 8. Absolute stereochemistry of such compounds may be identified by methods known in the art.
Rescue EC50 values reported in Table B2 below represent the half-maximal effective concentration for reversal of cell death caused by overexpression of APOL1.

Row | SMILES | AC50 [1] | EC50 [2]
1 | CC1(C)CC(COc2ccc(S(C)(=O)=O)cc2)CN1CCc1cccc(Cl)c1 (single isomer, unassigned) [Compound 44, (R) or (S)-1-(3-chlorophenethyl)-2,2-dimethyl-4-((4-(methylsulfonyl)phenoxy)methyl)pyrrolidine] | 2.22 µM | 2.43 µM
2 | CC1CC(COc2ccc(S(C)(=O)=O)cc2)CN1CCc1cccc(Cl)c1 (single isomer, unassigned) [Compound 58, (2S,4S) or (2R,4S) or (2R,4R) or (2S,4R)-1-(3-chlorophenethyl)-2-methyl-4-((4-(methylsulfonyl)phenoxy)methyl)pyrrolidine] | 0.0727 µM | < 0.041 µM
3 | C[C@@H]1CN(CCc2cccc(S(F)(F)(F)(F)F)c2)C[C@H]1COc1ccc(S(C)(=O)=O)cc1 [Compound 163, (3S,4S)-3-[(4-methanesulfonylphenoxy)methyl]-4-methyl-1-{2-[3-(pentafluoro-λ^6-sulfanyl)phenyl]ethyl}pyrrolidine] | 1.15 µM | > 0.385 µM
4 | CN(c1ccc(OC[C@@H](O)CN2CCOC(c3cccc(Cl)c3)C2)cc1)S(C)(=O)=O (stereo partly drawn) [Compound 80, N-(4-((2S)-3-(2-(3-chlorophenyl)morpho-lino)-2-hydroxypropoxy)phe-nyl)-N-methylmethanesulfon-amide] | 13.9 µM | 13 µM
5 | CS(=O)(=O)c1ccc(OC[C@@H]2CCCN(CC(O)c3cccc(Cl)c3)C2)cc1 (stereo partly drawn) [Compound 20, 1-(3-chlorophenyl)-2-((R)-3-((4-(methylsulfonyl)phenoxy)methyl)piperidin-1-yl)ethanol] | 1.76 µM | 1.36 µM
6 | COC(CN1CCC[C@@H](COc2ccc(S(C)(=O)=O)cc2)C1)c1cccc(Cl)c1 (single isomer, unassigned) [Compound 26, (R)-1-((S)-2-(3-chlorophenyl)-2-methoxyethyl)-3-((4-(methylsulfonyl)phenoxy)methyl)piperidine or (R)-1-((R)-2-(3-chlorophenyl)-2-methoxyethyl)-3-((4-(methylsulfonyl)phenoxy)methyl)piperidine] | 1.54 µM | 2.24 µM
7 | CN(c1ccc(OC[C@H](O)CN2CCOC(c3cccc(Cl)c3)C2)cc1)S(C)(=O)=O (single isomer, unassigned) [Compound 85, N-(4-((R)-3-((S) or (R)-2-(3-chlorophenyl)morpho-lino)-2-hydroxypropoxy)phe-nyl)-N-methylmethanesulfon-amide] | 8.48 µM | > 18 µM
8 | CCc1ccccc1CCNC[C@H](O)COc1ccc(N(C)S(C)(=O)=O)cc1 [Compound 100, (S)-N-(4-(3-((2-ethylphenethyl)ami-no)-2-hydroxypropoxy)phe-nyl)-N-methylmethanesulfon-amide] | 1.26 µM | 2.73 µM
9 | COCCS(=O)(=O)c1ccc(OC[C@H]2CN(CCc3cccc(Cl)c3)C[C@@H]2C)cc1 (single isomer, unassigned) [Compound 110, (3R,4R or 3S,4S)-1-[2-(3-chlorophenyl)ethyl]-3-{[4-(2-methoxyethane-sulfonyl)phenoxy]methyl}-4-methylpyrrolidine] | 0.0914 µM | 0.135 µM
10 | CS(=O)(=O)c1ccc(OC[C@H]2CCCN(CC(O)c3cccc(Cl)c3)C2)cc1 (single isomer, unassigned) [Compound 18, (R) or (S)-1-(3-chlorophenyl)-2-((S)-3-((4-(methylsulfonyl)phenoxy)methyl)piperidin-1-yl)ethan-1-ol] | 5.73 µM | 6.32 µM
11 | C[C@H]1CN(CCc2cccc(Cl)c2)C[C@H]1COc1ccc(S(C)(=O)=O)cc1 (single isomer, unassigned) [Compound 152, (3S,4R or 3R, 4S)-1-[2-(3-chlorophenyl)-ethyl]-3-[(4-methanesulfon-ylphenoxy)meth-yl]-4-methyl-pyrrolidine] | 1.99 µM | 4.72 µM
